The target of the assay is T1, JAK3 (Homo sapiens, UniProt P52333).
T1 construct: The Ramos B-cell line was acquired from ATCC (ATCC Catalog No. CRL-1596); host or cells: Ramos B-cell line (human)
T1 sequence (P52333 1-1124): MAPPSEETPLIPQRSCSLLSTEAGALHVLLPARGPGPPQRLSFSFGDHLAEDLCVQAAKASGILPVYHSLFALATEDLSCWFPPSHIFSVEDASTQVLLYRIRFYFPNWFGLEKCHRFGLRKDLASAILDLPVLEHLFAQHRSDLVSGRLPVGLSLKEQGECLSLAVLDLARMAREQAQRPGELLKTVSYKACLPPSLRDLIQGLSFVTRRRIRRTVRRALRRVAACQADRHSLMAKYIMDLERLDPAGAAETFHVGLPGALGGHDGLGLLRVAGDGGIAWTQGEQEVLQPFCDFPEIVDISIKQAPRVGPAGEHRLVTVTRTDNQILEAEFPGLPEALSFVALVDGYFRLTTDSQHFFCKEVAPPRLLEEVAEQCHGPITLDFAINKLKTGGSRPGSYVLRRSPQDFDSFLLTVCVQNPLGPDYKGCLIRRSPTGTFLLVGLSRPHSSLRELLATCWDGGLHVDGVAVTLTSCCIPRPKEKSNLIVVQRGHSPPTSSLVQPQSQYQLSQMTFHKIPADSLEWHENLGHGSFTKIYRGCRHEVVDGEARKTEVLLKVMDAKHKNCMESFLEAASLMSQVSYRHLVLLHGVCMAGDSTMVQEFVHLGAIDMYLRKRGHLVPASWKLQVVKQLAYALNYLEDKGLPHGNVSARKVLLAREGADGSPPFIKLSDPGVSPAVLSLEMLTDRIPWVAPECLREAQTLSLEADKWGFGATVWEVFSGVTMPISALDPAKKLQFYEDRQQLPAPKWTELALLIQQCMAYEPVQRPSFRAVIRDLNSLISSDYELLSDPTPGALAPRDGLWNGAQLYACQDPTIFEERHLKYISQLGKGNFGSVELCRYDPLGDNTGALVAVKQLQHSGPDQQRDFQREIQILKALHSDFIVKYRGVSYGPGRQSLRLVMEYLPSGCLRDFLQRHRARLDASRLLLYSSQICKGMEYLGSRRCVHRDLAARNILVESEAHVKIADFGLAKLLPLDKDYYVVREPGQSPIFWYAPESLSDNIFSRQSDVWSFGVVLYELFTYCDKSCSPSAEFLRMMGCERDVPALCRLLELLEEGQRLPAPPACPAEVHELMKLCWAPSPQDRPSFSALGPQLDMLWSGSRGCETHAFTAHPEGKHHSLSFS
Briefly: Assay for CD23 expression on Ramos B-cells stimulated by IL-4 (Table IV: ability to inhibit JAK3 activity). The class given is cell-based. Conditions: tested under conditions described in Example 3 (so in the source). An outline of the steps: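 IL-4-induced CD23 surface expression on human Ramos B cells, detected by flow cytometry after 20–24 h stimulation (IL-4 final 50 units/mL). Compound or DMSO added 1 h beforehand at 37 °C; cells kept in RPMI with 5% serum.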

Structures can show the parent of a compound that is named as a salt.

As usually defined, the IC50 is the concentration that inhibits the measured activity by half. Low readings indicate higher potency, high ones lower potency. In turn, `COc1cc(C)cc(Nc2ncc(F)c(Nc3cc(C)c4oc(=O)[nH]c4c3)n2)c1` [Compound I-177, 5-(2-(3-methoxy-5-methylphenylamino)-5-fluoropyrimidin-4-ylamino)-7-methylbenzo[d]oxazol-2(3H)-one trifluoroacetate salt] showed a concentration for half-maximal inhibition (IC50) of more than 10000 nM. The figure for `O=C(NC1CCC1)c1ccc(Nc2ncc(F)c(Nc3ccc4oc(=O)[nH]c4c3)n2)cc1` [Compound I-159, N-cyclobutyl-4-(5-fluoro-4-(2-oxo-2,3-dihydrobenzo[d]oxazol-5-ylamino)pyrimidin-2-ylamino)benzamide formate salt] is less than 500 nM.

The compound `COc1cc(Nc2ncc(C)c(Nc3cc(C)c4oc(=O)[nH]c4c3)n2)cc(C)c1C` [Compound I-109, 5-(2-(3-methoxy-4,5-dimethylphenylamino)-5-methylpyrimidin-4-ylamino)-7-methylbenzo[d]oxazol-2(3H)-one trifluoroacetate trifluoroacetate salt] came in with an IC50 of less than 500 nM. In the case of `Cc1cnc(Nc2cc(C)c(C)c(C)c2)nc1Nc1ccc2oc(=O)n(COP(=O)(O)O)c2c1` [Compound I-132, 5-methyl-N4-[3-(phosphonooxy)methyl-2-oxo-2,3-dihydro-1,3-benzoxazol-5-yl]-N2-(3,4,5-trimethyl)phenyl-2,4-pyrimidinediamine Tris salt], the IC50 is less than 500 nM.

Consider `Cc1ccc(Nc2ncc(C)c(Nc3ccc4oc(=O)[nH]c4c3)n2)nc1C` [II-21, N2-(5,6-dimethylpyridin-2-yl)-5-methyl-N4-(2-oxo-2,3-dihydro-1,3-benzoxazol-5-yl)-2,4-pyrimidinediamine], for which the IC50 is 500 to 5000 nM. Consider `COc1cc(Nc2ncc(Cl)c(Nc3ccc4oc(=O)[nH]c4c3)n2)cc(C)c1C` [Compound I-52, 5-(5-chloro-2-(3-methoxy-4,5-dimethylphenylamino)pyrimidin-4-ylamino)benzo[d]oxazol-2(3H)-one], for which the IC50 is less than 500 nM. Turning to `COc1cc(Nc2ncc(F)c(Nc3ccc4oc(=O)[nH]c4c3)n2)ccc1-c1ccncc1` [Compound I-207, 5-(2-(3-methoxy-4-(pyridin-4-yl)phenylamino)-5-fluoropyrimidin-4-ylamino)benzo[d]oxazol-2(3H)-one formate salt], the IC50 was more than 10000 nM.

For the compound `Cc1cnc(Nc2cc(C)c(C)c(C)c2)nc1Nc1cc(-c2ccc3c(c2)OCO3)c2oc(=O)[nH]c2c1` [Compound I-88, 5-(2-(3,4,5-trimethylphenylamino)-5-methylpyrimidin-4-ylamino)-7-(benzo[d][1,3]dioxol-6-yl)benzo[d]oxazol-2(3H)-one], the IC50 is more than 10000 nM. In turn, `CCNc1cc(Nc2ncc(Cl)c(Nc3ccc4oc(=O)[nH]c4c3)n2)cc(C)c1C` [Compound I-87, 5-(5-chloro-2-(3-(ethylamino)-4,5-dimethylphenylamino)pyrimidin-4-ylamino)benzo[d]oxazol-2(3H)-one formate salt] came in with an IC50 of less than 500 nM. The figure for `Cc1cnc(Nc2ccc3c(c2)COC3=O)nc1Nc1ccc2oc(=O)[nH]c2c1` [II-10, 5-methyl-N4-(2-oxo-2,3-dihydro-1,3-benzoxazol-5-yl)-N2-(1-oxo-1,3-dihydro-isobenzofuran-5-yl)-2,4-pyrimidinediamine] is less than 500 nM; for `COC(=O)c1cnc(Nc2cc(C)c(C)c(OC)c2)nc1Nc1ccc2oc(=O)[nH]c2c1` [Compound I-59, 2-(3-Methoxy-4,5-dimethyl-phenylamino)-4-(2-oxo-2,3-dihydro-benzooxazol-5-ylamino)-pyrimidine-5-carboxylic acid methyl ester trifluoroacetate salt] it is more than 10000 nM. With `NC(=O)c1ccc(Nc2nccc(Nc3ccc4oc(=O)[nH]c4c3)n2)cc1` [Compound I-2, 4-(4-(2-oxo-2,3-dihydrobenzo[d]oxazol-5-ylamino)pyrimidin-2-ylamino)benzamide trifluoroacetate salt], the IC50 was less than 500 nM. The compound `COc1c(F)ccc(Nc2ncc(Cl)c(Nc3ccc4oc(=O)[nH]c4c3)n2)c1F` [Compound I-7, 5-(5-chloro-2-(2,4-difluoro-3-methoxyphenylamino)pyrimidin-4-ylamino)benzo[d]oxazol-2(3H)-one trifluoroacetate salt] gave an IC50 of less than 500 nM. In turn, `Cc1cnc(Nc2cc(C)c(C)c(C)c2)nc1Nc1cc(CN2CCNCC2)c2oc(=O)[nH]c2c1` [Compound I-95, 5-(2-(3,4,5-trimethylphenylamino)-5-methylpyrimidin-4-ylamino)-7-((piperazin-1-yl)methyl)benzo[d]oxazol-2(3H)-one ditrifluoroacetate salt] registered an IC50 of 5000 to 10000 nM.

Consider `CN1C/C=C\Cc2ccc(Nc3ncc(F)c(Nc4ccc5oc(=O)[nH]c5c4)n3)cc2C1=O` [II-4, (Z)-5-(5-fluoro-2-(2-methyl-1-oxo-1,2,3,6-tetrahydrobenzo[c]azocin-9-ylamino)pyrimidin-4-ylamino)benzo[d]oxazol-2(3H)-one formate salt], for which the IC50 was less than 500 nM.

As for `COC(=O)c1cnc(Nc2ccc(C)c(N(C)C)c2)nc1Nc1ccc2oc(=O)[nH]c2c1` [Compound I-57, 2-(3-Dimethylamino-4-methyl-phenylamino)-4-(2-oxo-2,3-dihydro-benzooxazol-5-ylamino)-pyrimidine-5-carboxylic acid methyl ester trifluoroacetate salt], the IC50 is more than 10000 nM. With `Cc1cc(Nc2nc(Nc3cccc(S(C)(=O)=O)c3)ncc2F)cc2[nH]c(=O)oc12` [Compound I-172, 5-(2-(3-(methylsulfonyl)phenylamino)-5-fluoropyrimidin-4-ylamino)-7-methylbenzo[d]oxazol-2(3H)-one trifluoroacetate salt], the IC50 is less than 500 nM. In turn, `CCN(CC)Cc1cc(Nc2nc(Nc3cc(C)c(C)c(C)c3)ncc2C)cc2[nH]c(=O)oc12` [Compound I-90, 7-((diethylamino)methyl)-5-(2-(3,4,5-trimethylphenylamino)-5-methylpyrimidin-4-ylamino)benzo[d]oxazol-2(3H)-one ditrifluoroacetate salt] showed an IC50 of 500 to 5000 nM. `O=C1NCC=Cc2cc(Nc3ncc(F)c(Nc4ccc5oc(=O)[nH]c5c4)n3)ccc21` [II-23, 5-(5-fluoro-2-(1-oxo-2,3-dihydro-1H-benzo[c]azepin-7-ylamino)pyrimidin-4-ylamino)benzo[d]oxazol-2(3H)-one formate salt]: the IC50 was less than 500 nM.

Consider `Cc1cnc(Nc2cc(C)c(CO)c(C)c2)nc1Nc1ccc2oc(=O)[nH]c2c1` [Compound I-142, N2-(3,5-dimethyl-4-hydroxymethyl)phenyl-5-methyl-N4-(2-oxo-2,3-dihydro-1,3-benzoxazol-5-yl)-2,4-pyrimidinediamine], for which the IC50 was less than 500 nM. The figure for `Cc1cnc(Nc2cc(C)c(F)c(CO)c2)nc1Nc1ccc2oc(=O)[nH]c2c1` [Compound I-154, N2-(4-fluoro-3-hydroxymethyl-5-methyl)phenyl-5-methyl-N4-(2-oxo-2,3-dihydro-1,3-benzoxazol-5-yl)-2,4-pyrimidinediamine] is less than 500 nM.

(Values after patent publication US11174251B2, “Compositions and methods for inhibition of the JAK pathway” (Rigel Pharmaceuticals, Inc., priority 2010, dated 2021).)
